Values joined by “and” are separate entries in the source; they are usually repeats but may differ in a detail not shown here. Equal entries are not always repeated. “Also recorded” adds a separate entry of the source.
Tests used:
FTO protein [1] = biological target: T1, FTO protein (Homo sapiens, UniProt Q9C0B1); test: FTO enzyme inhibition assay (demethylation of m6A RNA probe); format: biochemical; parameters: 6His (C); purchased ProteoGenics SAS (ProteoGenix), Schiltigheim, France; host or cells: HEK293 (transient transfection); details: for Inhibitory effect on FTO: up to the 100 µM concentration; for IC50: 10 nM FTO, 200 ng m6A RNA probe, 2 h at RT
Protocol: The enzymatic assay was modified from Huang et al. The experiments were conducted in reaction buffer (50 mM Tris-HCl, pH 7.5, 300 μM 2OG, 280 μM (NH4)2Fe(SO4)2, and 2 mM L-ascorbic acid). The reaction mixture contained 200 ng methylated N^6-adenine RNA probe (SEQ ID NO: 1) (5′-CUUGUCAm6[…]-3′, Dharmacon, Lafayette, CO, USA) and 10 nM FTO protein and different concentrations of ligands (1 nM to 100 µM). Reactions were incubated on 96-well plate for 2 h at RT. After that, the amount of m^6A that was measured using EpiQuik m^6A RNA methylation Quantification Colorimetric Kit (Epigentek, Farmingdale, NY, USA).
The inhibitory effect IE of compounds on RNA probe demethylation by FTO was calculated as the enhancement of the m^6A amount as compared to the negative control (DMSO) relative to the difference between m^6A amounts of the positive control (max inhibition) and the negative control (Equation (2)) (2) IE=Cinh− CDMSO/Cinh(max)− CDMSO where Cinh, Cinh(max), and CDMSO are the amounts of m^6A at a given concentration of the inhibitor, maximum inhibition and in the case of DMSO, respectively.
Enzymatic assay curve-fitting analysis and determination of the IC50 and EC50 values were performed using AAT Bioquest, Inc. Quest Graph™ IC50 Calculator (v.1, Sunnyvale, CA, USA). MST data analysis was performed using MO.Affinity Analysis v2.3 software (NanoTemper Technologies GmbH, Munich, Germany). Statistical significance in cell survival experiments was assessed using one-way ANOVA and unpaired t-test with the GraphPad Prism8 software (GraphPad Software, Inc., 2365 Northside Dr., Suite 560, San Diego, CA, USA). Results were considered statistically significant at p values lower than 0.05.

FTO protein [2] = biological target: T1, FTO protein; test: Protein binding by microscale thermophoresis (MST); parameters: purchased ProteoGenics SAS (ProteoGenix), Schiltigheim, France; host or cells: HEK293 (transient transfection); details: labelled FTO 20 nM, ligand 0–10 µM, 25 °C, pH 7.4
Protocol: The microscale thermophoresis (MST) experiments were performed using Monolith NT.115 instrument (NanoTemper Technologies GmbH, Germany). Recombinant human FTO protein was labeled through His-tag using Monolith His-Tag Labeling Kit RED-tris-NTA (NanoTemper Technologies GmbH; MO-L008). The labelled FTO protein (target) was used at 20 nM in all the experiments and 10 µM starting concentrations of ligands FTO inhibitors 2 or 3 were used in both series of experiments.
The measurements were done in a buffer containing 10 mM Na-phosphate buffer, pH 7.4, 1 mM MgCl2, 3 mM KCl, 150 mM NaCl, 0.05% Tween-20 in premium coated capillaries (NanoTemper Technologies GmbH; MO-K025) using red LED source, power set at 100% and medium MST power at 25 °C. Each data point represents mean fraction bound values from n = 3 independent experiments per binding pair ±S.D, Kd values ± error estimations are indicated. Data analysis was performed using MO.Affinity Analysis v2.3 software.

dopamine neurons = test: 6-OHDA induced death of dopamine neurons; format: cell-based; details: data not shown
[3] = test system: mouse midbrain dopamine neurons; test: Survival of growth factor-deprived primary midbrain dopamine neurons; format: cell-based; details: for Neuroprotective effect at 10 nM / Neuroprotective effect at 100 nM / Neuroprotective effect at 1000 nM: growth factor deprivation; for Protection of embryonic midbrain dopamine neurons from growth factor deprivation-induced cell death: E13 mouse midbrain cultures, TH-positive cells, 10–1000 nM, five days; for Number of TH-positive neurons: three tested concentrations, growth factor deprivation model
Protocol: We, therefore, assessed the neuroprotective ability of different concentrations of FTO or ALKBH5 inhibitors in cultured growth factor deprived dopamine neurons. Human recombinant GDNF (100 ng/mL) or a condition without any neurotrophic compound added were used as positive and negative controls, respectively. Growth factor deprivation caused cell death by 50–70%. Representative images of mouse E13 wild-type midbrain cultures treated with vehicle, FTO or ALKBH5 inhibitors, and GDNF (positive control) probed with anti-TH antibody are shown on Figure 7B.
The midbrain floors were dissected from the ventral mesencephalic of 13 days old NMRI strain mouse embryos following the published procedure. The tissues were incubated with 0.5% trypsin (103139, MP Biomedicals, Inc, Thermo Fisher Scientific, Waltham, MA, USA) in HBSS (Ca^2+/Mg^2+-free) (14170112, Invitrogen, Thermo Fisher Scientific, Carlsbad, CA, USA) for 20 min at 37 °C, then mechanically dissociated. Cells were plated onto the 96-well plates coated with poly-L-ornithine (Sigma-Aldrich, Merck KGaA, St. Louis, MO, USA). Equal volumes of cell suspension were plated onto the center of the dish. The dopamine neurons were cultured for five DIV in presence of cell culture media Dulbecco’s MEM/Nut mix F12 (Invitrogen/Gibco; 21331–020), 100 × N2 serum supplement (Invitrogen/ Gibco; 17502–048), 33 mM D-Glucose (Sigma; G-8769), 0.5 mM L-Glutamine (Invitrogen/ Gibco; 25030–032), and 100 μg/mL Primocin (Invivo Gen, San Diego, CA, USA)]. On 6 DIV, to deprive growth factors, the cultures were washed three times with normal medium and the FTO and ALKBH5 inhibitors and glial cell line-derived neurotrophic factor (GDNF) were applied. The cells were grown for five days with different concentrations of FTO and ALKBH5 inhibitors. Human recombinant GDNF (100 ng/mL) (Icosagen AS, Tartu, Estonia) or a condition without any neurotrophic compound added were used as positive and negative controls, respectively.
After growing five days, the neuronal cultures were fixed and stained with anti-Tyrosine Hydroxylase antibody (MAB318, Millipore Bioscience Research Reagents, Temecula, CA, USA). Images were acquired by CellInsight (Thermo Fisher Scientific) high-content imaging equipment. Immunopositive neurons were counted by CellProfiler software and the data was analyzed by CellProfiler analyst software. The results are expressed as % of cell survival compared to GDNF-maintained neurons.

[4] = test system: murine endothelial cells bEnd3 co-cultured with murine HIFko astrocytes; test: Artificial in vitro blood-brain barrier model; format: in vitro ADME; details: 10 µM in insert, 1 h; concentration in well ('brain') / concentration in insert
From the text: The effects of FTO inhibitors were studied in the artificial in vitro BBB model, where murine endothelial cells bEnd3 were co-cultured with murine HIFko astrocytes on hanging cell culture inserts. The BBB penetration % defined as the ratio of the concentration of the compound in the well (‘brain’) side and the concentration in the insert, were 31.7 ± 3.3% for compound 2 and 30.8 ± 1.9% for compound 3.
Artificial in vitro blood–brain barrier (BBB) was established as described by Le Joncour et al. Murine endothelial cells bEnd3 (ATCC CRL-2299) were co-cultured with murine hypoxia-inducible factor knock out (HIFko) astrocytes (passage 12, received from Le Joncour) on hanging cell culture inserts (BD Falcon 353091, Franklin Lakes, NJ, USA) for five days in fetal bovine serum (FBS)-free conditions. 2.5 mL of FTO inhibitors (final concentration of 10 µM) were added into the insert (representing the ‘blood’ side) of the BBB cell. After 1 h incubation, 1 mL of the sample was taken from the insert and from the well (‘brain’ side), and the concentration of the compounds was measured by high-performance liquid chromatography (HPLC). […] The concentration of the studied compounds is each side of the BBB cell were analyzed using LC-MS system consisting of Agilent 1290 UHPLC (Agilent, Inc., Santa Clara, CA, USA) and Agilent 6460 Triple Quadrupole MS (Agilent, Inc., Santa Clara, CA 95051, USA). […]

ALKBH5 = test system: ALKBH5; parameters: method as in earlier work; details: read-out: IC50 against ALKBH5; cited from earlier work

T1 sequence (Q9C0B1 whole entry): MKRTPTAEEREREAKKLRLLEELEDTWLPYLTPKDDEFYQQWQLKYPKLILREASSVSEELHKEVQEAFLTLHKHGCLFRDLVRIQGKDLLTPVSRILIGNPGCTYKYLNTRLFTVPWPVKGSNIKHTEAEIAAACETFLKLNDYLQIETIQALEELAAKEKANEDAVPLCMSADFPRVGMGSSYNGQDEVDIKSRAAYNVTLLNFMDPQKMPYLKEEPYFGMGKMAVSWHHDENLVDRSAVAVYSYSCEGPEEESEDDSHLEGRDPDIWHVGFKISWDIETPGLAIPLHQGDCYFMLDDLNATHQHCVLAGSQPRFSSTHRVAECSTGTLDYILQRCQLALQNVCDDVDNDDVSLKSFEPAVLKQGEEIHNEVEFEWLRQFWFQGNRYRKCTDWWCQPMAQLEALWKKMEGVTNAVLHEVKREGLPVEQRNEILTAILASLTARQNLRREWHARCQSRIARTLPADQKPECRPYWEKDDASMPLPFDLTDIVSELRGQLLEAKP

Compound | Inhibitory effect on FTO (FTO protein [1]) | Neuroprotective effect at 10 nM [3] | Neuroprotective effect at 100 nM [3] | Neuroprotective effect at 1000 nM [3] | Protection of embryonic midbrain dopamine neurons from growth factor deprivation-induced cell death [3] | further results
8-hydroxyquinoline-5-carboxylic acid [Compound 5] | No significant inhibitory effect |  |  |  |  | 
Nc1c(C(=O)O)cnc2ccccc12 [Compound 1, 4-aminoquinoline-3-carboxylic acid] | No significant inhibitory effect |  |  |  |  | 
Nc1c(C(=O)O)cnc2c(Cl)cccc12 [Compound 2, 4-amino-8-chloroquinoline-3-carboxylic acid] |  | neuroprotective effect can be seen | statistically significant outcome | statistically significant outcome | dose-dependently protected; also recorded: comparable to that of GDNF | Kd (FTO protein [2]): 185 nM; IC50 (FTO protein [1]): 1460 nM; Rescue of dopamine neurons from 6-OHDA induced neuronal cell death (dopamine neurons): recued dopamine neurons; BBB penetration % [4]: 31.7% and 31.7 ± 3.3%
Nc1cccc2cc(C(=O)O)cnc12 [Compound 3, 8-aminoquinoline-3-carboxylic acid] |  | neuroprotective effect can be seen | statistically significant outcome | statistically significant outcome | dose-dependently protected; also recorded: comparable to that of GDNF | Kd (FTO protein [2]): 337 nM; IC50 (FTO protein [1]): 28900 nM; Rescue of dopamine neurons from 6-OHDA induced neuronal cell death (dopamine neurons): recued dopamine neurons; BBB penetration % [4]: 30.8% and 30.8 ± 1.9%
Cc1cccc(C(=O)NNC(=O)/C=C/C(=O)O)c1 [Compound 4, (2E)-4-[(3-methylphenyl)formohydrazido]-4-oxobut-2-enoic acid] | No significant inhibitory effect |  |  |  |  | 
Cc1cccc(C(=O)NNC(=O)c2cccc(C)c2)c1 [Compound 6, 3-methyl-N’-(3-methylbenzoyl)benzohydrazide] | No significant inhibitory effect |  |  |  |  | 
O=C(O)CSC(O)C(=O)c1ccccc1 (stereo not drawn) [Compound 7, 2-[(1-hydroxy-2-oxo-2-phenylethyl)sulfanyl]acetic acid] |  |  |  |  | only trend | IC50 (ALKBH5): 840 nM; Number of TH-positive neurons [3]: increased
O=C1CC(NCc2ccco2)C(=O)NN1 (stereo not drawn) [Compound 8, 4-{[(furan-2-yl)methyl]amino}-1,2-diazinane-3,6-dione] |  | rescued | only a trend | rescued |  | Number of TH-positive neurons [3]: increased

Source: article PMC8123663, “Small-Molecule Inhibitors of the RNA M6A Demethylases FTO Potently Support the Survival of Dopamine Neurons” (International Journal of Molecular Sciences, 2021)
